These results are taken from ChEMBL document CHEMBL6071202, “Design, Synthesis, and Biological Evaluation of 3-Amino-pyrazine-2-carboxamide Derivatives as Novel FGFR Inhibitors” (ACS Med Chem Lett, 2024).

Test [1] concerns the target Fibroblast growth factor receptor 2 (Homo sapiens, UniProt P21802). Briefly: Inhibition of FGFR2 (unknown origin).
For test [2], the target named is T1, Receptor-type tyrosine-protein kinase FLT3 (Homo sapiens, UniProt P36888).
T1 sequence (P36888 whole entry): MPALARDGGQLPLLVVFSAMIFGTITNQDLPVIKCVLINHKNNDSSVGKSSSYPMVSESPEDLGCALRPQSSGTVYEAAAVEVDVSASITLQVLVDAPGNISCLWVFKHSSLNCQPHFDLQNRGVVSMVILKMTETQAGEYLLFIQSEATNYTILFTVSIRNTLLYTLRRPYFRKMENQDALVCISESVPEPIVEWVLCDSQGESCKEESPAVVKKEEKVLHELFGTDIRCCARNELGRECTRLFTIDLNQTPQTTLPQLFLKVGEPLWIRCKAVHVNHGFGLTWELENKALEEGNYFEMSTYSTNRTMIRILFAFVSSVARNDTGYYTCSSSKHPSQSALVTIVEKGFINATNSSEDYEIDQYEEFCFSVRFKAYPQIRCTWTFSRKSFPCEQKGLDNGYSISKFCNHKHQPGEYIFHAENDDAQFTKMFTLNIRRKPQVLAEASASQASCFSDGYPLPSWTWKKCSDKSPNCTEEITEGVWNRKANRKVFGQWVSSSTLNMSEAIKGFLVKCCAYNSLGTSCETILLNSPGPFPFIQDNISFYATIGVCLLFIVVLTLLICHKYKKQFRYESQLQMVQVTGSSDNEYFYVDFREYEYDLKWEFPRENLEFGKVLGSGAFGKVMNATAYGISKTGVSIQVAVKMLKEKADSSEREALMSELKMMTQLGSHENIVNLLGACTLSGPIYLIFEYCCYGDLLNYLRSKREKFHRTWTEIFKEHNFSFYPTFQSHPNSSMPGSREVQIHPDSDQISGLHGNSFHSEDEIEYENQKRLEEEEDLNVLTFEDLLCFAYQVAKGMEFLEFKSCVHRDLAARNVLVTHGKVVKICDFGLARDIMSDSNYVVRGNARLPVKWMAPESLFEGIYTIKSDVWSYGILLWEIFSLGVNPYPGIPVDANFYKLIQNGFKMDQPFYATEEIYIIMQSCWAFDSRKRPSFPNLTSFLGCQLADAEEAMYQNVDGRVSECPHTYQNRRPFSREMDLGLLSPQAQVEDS
Briefly: Inhibition of FLT3 (unknown origin) by immobilized metal ion affinity-based fluorescence polarization. On the technique in general: Polarisation of emitted light reports the rotation of a fluorescent probe.

SMILES strings stand for the structures.

Fibroblast growth factor receptor 2, sequence (P21802 whole entry): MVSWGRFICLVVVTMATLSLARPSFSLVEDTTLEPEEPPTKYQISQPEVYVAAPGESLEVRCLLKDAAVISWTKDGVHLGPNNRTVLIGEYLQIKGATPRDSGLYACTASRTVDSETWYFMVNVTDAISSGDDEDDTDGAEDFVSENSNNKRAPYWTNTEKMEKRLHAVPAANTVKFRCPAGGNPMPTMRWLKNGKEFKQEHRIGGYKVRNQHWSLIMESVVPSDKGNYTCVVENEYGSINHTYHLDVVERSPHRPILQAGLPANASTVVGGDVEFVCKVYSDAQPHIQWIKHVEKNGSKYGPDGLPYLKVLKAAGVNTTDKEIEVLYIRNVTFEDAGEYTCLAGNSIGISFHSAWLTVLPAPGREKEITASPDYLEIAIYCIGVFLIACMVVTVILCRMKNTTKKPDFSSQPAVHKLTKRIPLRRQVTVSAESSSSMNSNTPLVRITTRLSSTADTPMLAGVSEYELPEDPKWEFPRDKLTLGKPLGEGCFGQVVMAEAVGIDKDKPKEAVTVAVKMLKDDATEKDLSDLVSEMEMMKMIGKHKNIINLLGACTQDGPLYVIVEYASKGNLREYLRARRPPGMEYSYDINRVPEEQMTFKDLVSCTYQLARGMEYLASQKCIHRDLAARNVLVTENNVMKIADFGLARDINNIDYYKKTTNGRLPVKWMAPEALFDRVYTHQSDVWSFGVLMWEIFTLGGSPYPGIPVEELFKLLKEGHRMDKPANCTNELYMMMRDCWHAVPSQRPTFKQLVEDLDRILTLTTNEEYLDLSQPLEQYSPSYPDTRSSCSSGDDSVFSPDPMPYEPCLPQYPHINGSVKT

`Nc1ncc(-c2ccncc2)nc1Nc1ccc2[nH]ccc2c1` [AKN-028]: the half-inhibitory concentration (IC50) (in general, the point on the concentration scale where inhibition reaches its midpoint) in test [1] stood at 120 nM; in test [2] it was 6 nM.
